From the supplement of paper PMC10290057 come the findings set out here.

Where “and” joins values, the source holds several entries; their conditions need not be identical. Equal values may be shown once. Where a name gives a salt, the structure may show the parent alone.
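Further: Luminescence-based viability readout, five doses per compound, normalized against on-plate DMSO and empty-well controls, followed by dose-response curve fitting for every drug.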

For this test, the system named is HCT116. Description: efficacy (fitted maximal change in viability relative to DMSO control); higher = less cytotoxic (negative = loss of viability). Conditions: 48 h.
Turning to `CC(O)(C[S+](=O)([O-])c1ccc(F)cc1)C(=O)Nc1ccc(C#N)c(C(F)(F)F)c1` (stereo not drawn) [Bicalutamide], the efficacy was -14.2%. Regarding `CCNC(=O)CCC/C=C\C[C@@H]1[C@@H](/C=C/C(O)CCc2ccccc2)[C@@H](O)C[C@@H]1O` (stereo partly drawn) [Bimatoprost], the efficacy was -24.4%. As for `COC1=CC=C(C=C1)C/2=C/OC3=C(C(=CC(=C3)O)O)C2=O` [Biochanin A], the efficacy is -34.7%. In the case of `N=C1S/C(=C\c2ccc(-c3ccc4c(c3)C(=O)NC4=O)o2)C(=O)N1c1ccc(Br)cc1` [Bioymifi] it was -15.3%; in that of `OC(CCN1CCCCC1)(C2CC\3CC2\C=C3)C4=CC=CC=C4` (stereo not drawn) [Biperiden], -34.7%.

Regarding `CC[C@H](NC(=O)[C@H](C)NC)C(=O)N1C[C@@H](O)C[C@H]1Cc1c(-c2[nH]c3cc(F)ccc3c2C[C@@H]2C[C@H](O)CN2C(=O)[C@H](CC)NC(=O)[C@H](C)NC)[nH]c2cc(F)ccc12` [Birinapant], the efficacy was -49.9%. As for `CC/C(=C(/c1ccc(/C=C/C(=O)O)cc1)c1ccc2[nH]ncc2c1)c1ccc(F)cc1Cl` [Brilanestrant], the efficacy is -35.5%.

Regarding `CCCCCCCCCCCCCCCCOCCCO[P](O)(=O)COC(CO)CN1/C=C\C(=N/C1=O)N` (stereo not drawn) [Brincidofovir], the efficacy is -6.44%. In the case of `CN(Cc1cc(Br)cc(Br)c1N)C1CCCCC1` [Bromhexine hydrochloride] it was -27.2%. Next, `CCCCOc1ccc(CC(=O)NO)cc1` [Bufexamac]: -14.9%; `COc1cc(OC)c(C(=O)CCCN2CCCC2)c(OC)c1` [Buflomedil hydrochloride]: -7.04%; `CCCCNc1cc(C(=O)O)cc([S+](N)(=O)[O-])c1Oc1ccccc1` [Bumetanide]: -7.8%. Take `C[S+](=O)([O-])OCCCCO[S+](C)(=O)[O-]` [Busulfan]: the efficacy is -5.76%. Consider `C=C1C(=O)OC(CCCCCCCC)C1C(=O)O` (stereo not drawn) [C75], for which the efficacy is -6.41%. Next, `CC1=NN(c2ccc(C(=O)O)cc2)C(=O)/C1=C/c1ccc(-c2cc(C)c(C)cc2[N+](=O)[O-])o1` [C-646]: -21%. Next, `O=C(NCc1ccccc1)[C@H](Cc1ccccc1)NC(=O)[C@H]1O[C@@H]1C(=O)NCCc1ccc(O)cc1` [CAA-0225]: -24.8%. For `CN1\C=C(/N=C(NC2=CC=C(C=C2)C(=O)N3CCOCC3)\C1=O)C4=C(C)C(=CC=C4)NC(=O)C5=CC=C(C=C5)C(C)(C)C` [CGI-1746], the efficacy is -29.2%. As for `Clc1ccc(-c2nc3sccn3c2/C=N/OCc2ccc(Cl)c(Cl)c2)cc1` [CITCO], the efficacy is -19.4%. Next, `CC(C)C/1=C(NC2=C(C=N[N]2C1=O)C#N)\C3=CC=CC=C3` [CPI-455]: -11.2%. For the compound `O=C(O)CCCCC(CCSCc1ccccc1)SCc1ccccc1` (stereo not drawn) [CPI-613], the efficacy was -19.4%. Next, `CC(=O)Nc1ccc(C(=O)NC(C)(C)C)cc1` [CPI-1189]: -10.3%; `COC/1=C(\CNC(=O)C2=C(C)[N]([C@H](C)C3CCN(CC3)CC(F)(F)F)C4=C2C=CC=C4)C(=O)N/C(=C1)C` [CPI-1205]: -27.1%. As to `CCC/1=C(/NC2=C(C=N[N]2C1=O)C#N)C3=CC=CC=C3C` [CPI-4203], the efficacy was found to be 17.2%.

On to `CN[C@@H](C)C(=O)N[C@H](C(=O)N1CCC[C@H]1C(=O)Nc1sc(-c2ncco2)nc1-c1ccccc1)C1CCCCC1` [CUDC-427], for which the efficacy was -17%. In the case of `CCCn1c(=O)c2[nH]c(-c3cnn(Cc4cccc(C(F)(F)F)c4)c3)nc2n(CC)c1=O` [CVT-6883] it was -14.4%; in that of `Cc1nc(C)c(CN2CCN(C(c3ccc(F)cc3)c3ccc(F)cc3)CC2)nc1C` [CXC-195], -77.3%. For the compound `C=C1/C(=C\C=C2/CCC[C@]3(C)[C@@H]([C@H](C)CCCC(C)(C)O)CC[C@@H]23)C[C@@H](O)C[C@@H]1O` [Calcitriol], the efficacy was -65% and -62.8%. In the case of `N/C1=N/C(=O)C/2=C(NC[C@@H](CNC3=CC=C(C=C3)C(=O)N[C@@H](CCC([O-])=O)C([O-])=O)N2C=O)\N1` [Calcium folinate], the efficacy was -9.49%. As to `CCCC[C@@H](C=O)NC(=O)[C@H](CC(C)C)NC(=O)OCc1ccccc1` [Calpeptin], the efficacy is -29.4%.

In the case of `CC[C@@]1(O)C(=O)OC\C2=C1\C=C\3N(CC4=C3N=C5C=CC=CC5=C4)C2=O` [Camptothecin], the efficacy is -65.5%. For the compound `CNC(=O)c1ccc(-c2cnc3ncc(Cc4ccc5ncccc5c4)n3n2)cc1F` [Capmatinib], the efficacy was -28.8%.

As to `COc1cc(CNC(=O)CCCC/C=C/C(C)C)ccc1O` [Capsaicin], the efficacy was -16.7%. In the case of `COc1ccc(Nc2nccc(NCCO)n2)cc1` [Cardiogenol] it was -11.7%; in that of `O=NN(CCCl)C(=O)NCCCl` [Carmustine], -15.1%; in that of `CCN(CC)CCN1C(=O)\C(=N/C2=CC=CC=C12)CC3=CC=C(OC)C=C3` [Caroverine], -15.9%.

With `CC(C)C[C@H](NC(=O)[C@H](Cc1ccccc1)NC(=O)OCc1ccccc1)C(=O)C=O` [Cathepsin S Inhibitor], the efficacy was -64.5%. In the case of `CCN1CCN(C(=O)N[C@@H](C(=O)N[C@H]2[C@H]3SC\C(=C(/N3C2=O)C(O)=O)CSC4=NN=N[N]4C)C5=CC=C(O)C=C5)C(=O)C1=O` [Cefoperazone (sodium salt)] it was -15.8%; in that of `Cc1nnc(C(C)C)n1C1CC2CCC(C1)N2CCC(NC(=O)C1CCC(F)(F)CC1)c1ccccc1` (stereo not drawn) [Celsentri (Maraviroc)], 17%. On to `CC[S+](=O)([O-])N1CCN(c2ccc(Nc3ncc(C(N)=O)c(NC4CC4)n3)cc2)CC1` [Cerdulatinib], for which the efficacy is -88.9%. With `COc1ccc2c(c[n+](C)c3c4cc5c(cc4ccc23)OCO5)c1OC` [Chelerythrine chloride], the efficacy is -83.2%. As for `C[C@H](CCC(=O)O)[C@H]1CC[C@H]2[C@@H]3[C@H](O)C[C@@H]4C[C@H](O)CC[C@]4(C)[C@H]3CC[C@]12C` [Chenodeoxycholic acid], the efficacy is -16%. Next, `CCN(CC)CCCC(C)Nc1ccnc2cc(Cl)ccc12` (stereo not drawn) [Chloroquine]: -24.3%; `N[S+]([O-])(=O)C1=C(Cl)C=C2\N=C/N[S+]([O-])(=O)C2=C1` [Chlorothiazide]: -4.38%. Consider `Cc1cc(O)c2c(c1)C(=O)c1cccc(O)c1C2=O` [Chrysophanol], for which the efficacy is -8.65%. In the case of `NC/1=N/C(=O)N(C[C@@H](CO)OC[P](O)(O)=O)/C=C1` [Cidofovir] it was 7.03%; in that of `CC(C)[C@H]1C(=O)N[C@@H](CCCN=C(N)N)C(=O)NCC(=O)N[C@@H](CC(=O)O)C(=O)N[C@H](Cc2ccccc2)C(=O)N1C` [Cilengitide], -11%. `O=C1CCc2cc(OCCCCc3nnnn3C3CCCCC3)ccc2N1` [Cilostazol]: the efficacy is -26.7%. In the case of `O=C(O)CCCCN(CCc1ccccc1OCc1ccc(CCc2ccccc2)cc1)Cc1ccc(C(=O)O)cc1` [Cinaciguat] it was -11.7%.
